# Measurements: patent publication US8481005B2, “Methods to prevent cytotoxicity using N-acetyl-cysteine” (priority 2006, dated 2013)
# Legend:
# [1] = test system: HEp2 cells co-cultured with PBMCs; test: VEGF in co-cultures of HEMA/NAC treated HEp2 cells with PBMCs (multiplex cytokine array); assay type: cell-based, human; parameters: unit not given here
# Method: (§1) Treatment with NAC inhibits HEMA-mediated cell death and cytotoxicity. Thus, its ability to protect the function of cells in the presence of HEMA was also evaluated further. […] The cells were trypsinized and washed 4 times with 1×PBS before they were co-cultured with PBMCs obtained from a healthy individual. A 4:1 ratio of effector to target cells (PBMC:HEp2) were used in these cultures. PBMCs were treated with and without IL-2 before they were co-cultured with HEp-2 cells. The supernatants were then removed from the co-cultures after an overnight incubation and analyzed using the FAST QUANT multiplex cytokine array kit to determine the levels of secreted cytokines.
# [2] = test system: HEp2 cells co-cultured with PBMCs; test: IL-6 in co-cultures of HEMA/NAC treated HEp2 cells with healthy donor PBMCs; assay type: cell-based, human
# Method: as §1, with “HEp-2 cells obtained from ATCC were cultured in DMEM supplemented” for “Treatment”, “10% FBS, 1% sodium pyruvate, 1% non essential amino acids” for “NAC inhibits HEMA-mediated cell death”, “1% antibiotic-antimycotic solution.” for “cytotoxicity. Thus, its ability to protect the function of cells in the presence of HEMA was also evaluated further.”
# [3] = test system: human dental pulp stromal cells; test: VEGF release from human dental pulp stromal cells (Table 4); assay type: cell-based
# Method: (§2) The cells were then grown in media containing β-glycerophosphate and ascorbic acid until they reached confluency. […] Supernatants were measured for VEGF release.
# [4] = test system: UCLA-2 cells (a primary oral tumor line); test: VEGF release from UCLA-2 cells (Table 4); assay type: cell-based
# Method: as §2
# [5] = test system: peripheral blood mononuclear cells; test: PI/Annexin V apoptosis in peripheral blood mononuclear cells; assay type: cell-based, human; settings: PBMCs, overnight
# Method: PBMCs were isolated and obtained after Ficoll-hypaque centrifugation as described in Jewett et al., 159, J. Immunol. (1997) which is hereby incorporated by reference. Specifically, human peripheral blood was obtained from normal donors in the laboratory as per guidelines of the UCLA Human Subject Protection Committee. The blood was fractionated on Ficoll-Hypaque, and the buffy layer was harvested, washed and resuspended in media.
# Peripheral blood mononuclear cells were then cultured in RPMI 1640 supplemented with 10% FCS, 1% penicillin-streptomycin, 1% sodium pyruvate and 1% non-essential amino acids.
# Cells were simultaneously treated in the presence and absence of NAC overnight. […] It is quite well known that apoptotic cells initially lose their size and gain in granularity when they undergo cell death. These changes are one hallmark of apoptosis.
# HaCaT cells = test: PI/Annexin V cell death in HaCaT skin keratinocytes; assay type: cell-based; settings: HEMA 0.082M to 0.00164M alone or with NAC 20 mM, overnight
# Method: Ten thousand events were analyzed for each sample. (FIG. 5)
# odontoblasts = test: ALP staining of rat odontoblasts; assay type: cell-based; settings: 0.00328M HEMA; overnight, 7 days or 14 days
# Method: Restoring the function of cells is also very important. Therefore, ALP staining was performed as a measure of odontoblast function. […] Following this incubation, cells were washed twice with PBS and incubated with 120 mM of Tris buffer (pH=8.4) containing 0.9 mM Napthol AS-M Phosphate and 1.8 mM Fast Red TR for 30 minutes at 37° C. Afterwards the cells were washed three times with PBS and then fixed with 1 ml cold ethanol (100%) for about 30 minutes. The stained cultures were digitized using a scanner.
# [6] = test system: human dental pulp stromal cells; test: Human dental pulp stromal cells, 4 hour treatment: VEGF ELISA and apoptosis; assay type: cell-based; settings: HEMA alone or with NAC 20 mM, then overnight
# Method: After this treatment cells were washed and incubated overnight.
# Jurkat cells = test: Mitochondrial membrane potential in Jurkat cells (DiOC6); assay type: cell-based; settings: HEMA alone or with NAC 20 mM
# Method: The membrane potential was assessed by staining with DiOC6 which is a positively charged dye. At low concentrations, it accumulates in mitochondria due to their large negative membrane potential. However when the membrane potential is disrupted there is less binding of this dye.
# Caspase 3 [7] = test: Caspase 3 induction in Jurkat cells; assay type: cell-based; settings: HEMA alone or with NAC 20 mM
# Caspase 3 [8] = test: Full length caspase 3 in keratinocytes; assay type: cell-based; settings: about 8 hours, NAC 20 mM
# Description: Roles of NFkB and GAPDH in HEMA-Mediated Cell Death
# GAPDH mRNA = GAPDH mRNA in dental pulp stromal cells (RT-PCR); assay type: cell-based; settings: HEMA alone or with NAC 20 mM, 4 hours
# Method: The role of GAPDH in HEMA-mediated cytotoxicity was also evaluated. […] In comparison no significant decrease in β-actin and collagen-1 under the same experimental conditions could be seen.
# [9] = test system: human mesenchymal stem cells; test: VEGF secretion of human mesenchymal stem cells (ELISA); assay type: cell-based; settings: HEMA alone or with NAC 20 mM, 4 hours, then overnight
# mesenchymal stem cells = test: Cell death of mesenchymal stem cells (FITC-Annexin V and PI); assay type: cell-based
# Description: Treated mesenchymal stem cells were then removed and cell death determined using FITC-Annexin V and PI staining.
# osteoblasts = test: Cell death of osteoblasts differentiated from mesenchymal stem cells; assay type: cell-based
# Method: In a subsequent study, mesenchymal stem cells were differentiated to osteoblasts in differentiation media. […] Treated osteoblasts were then removed and cell death was determined using FITC-Annexin V and PI staining.
# [10] = test system: human smooth muscle cells; test: VEGF secretion of human smooth muscle cells (ELISA); assay type: cell-based; settings: HEMA (0.082M) alone or with NAC 20 mM, 4 hours, then overnight
# [11] = test system: HEp2 cells co-cultured with PBMCs; test: VEGF in co-cultures of HEMA/NAC treated HEp2 cells with PBMCs (multiplex cytokine array); assay type: cell-based, human; parameters: unit not given here; remark: listed apart in the source
# [12] = HEMA 0.00164M, alone or with NAC
# [13] = HEMA 0.0082M, alone or with NAC
# [14] = HEMA 0.0164M, alone or with NAC
# [15] = 0.0164M HEMA alone (HEMA) or also treated with NAC (NAC)
compound,measurement,setting,value
"C=C(C)C(=O)OCCO [HEMA, hydroxyethyl methacrylate]",VEGF,"[1]; HEp2 +0.00164M HEMA, −/+NAC, Control PBMC +IL-2",6923
same,VEGF,"[1]; HEp2 +0.00164M HEMA, −/+NAC, Control PBMC −IL-2",6640
same,VEGF,"[1]; HEp2 +0.00164M HEMA, −/+NAC, No PBMC",7139
same,VEGF,"[1]; HEp2 +0.0164M HEMA, −/+NAC, Control PBMC +IL-2",323
same,VEGF,"[1]; HEp2 +0.0164M HEMA, −/+NAC, Control PBMC −IL-2",582
same,VEGF,"[1]; HEp2 +0.0164M HEMA, −/+NAC, No PBMC",294
same,IL-6,"[2]; HEp2 +0.00082M HEMA, −/+NAC, PBMC +IL-2",371 pg/mL
same,IL-6,"[2]; HEp2 +0.00082M HEMA, −/+NAC, PBMC −IL-2",204 pg/mL
same,IL-6,"[2]; HEp2 +0.00164M HEMA, −/+NAC, PBMC +IL-2",264 pg/mL
same,IL-6,"[2]; HEp2 +0.00164M HEMA, −/+NAC, PBMC −IL-2",208 pg/mL
same,IL-6,"[2]; HEp2 +0.0082M HEMA, −/+NAC, PBMC +IL-2",243 pg/mL
same,IL-6,"[2]; HEp2 +0.0082M HEMA, −/+NAC, PBMC −IL-2",192 pg/mL
same,IL-6,"[2]; HEp2 +0.0164M HEMA, −/+NAC, PBMC +IL-2",262 pg/mL
same,IL-6,"[2]; HEp2 +0.0164M HEMA, −/+NAC, PBMC −IL-2",191 pg/mL
same,Human dental pulp stromal cells (VEFG secretion),[3]; [12],163.7 pg/mL
same,Human dental pulp stromal cells (VEFG secretion),[3]; [13],125.1 pg/mL
same,Human dental pulp stromal cells (VEFG secretion),[3]; [14],113.4 pg/mL
same,UCLA-2 (VEFG secretion),[4]; [12],3258.8 pg/mL
same,UCLA-2 (VEFG secretion),[4]; [13],319.6 pg/mL
same,UCLA-2 (VEFG secretion),[4]; [14],180.2 pg/mL
same,cells in the stage of late apoptosis (PI/Annexin V),[5]; 0.0082M HEMA alone (HEMA) or also treated with NAC (NAC),39%
same,cells in the stage of late apoptosis (PI/Annexin V),[5]; [15],about 45%
same,apoptotic cell death (PI/Annexin V),HaCaT cells,dose dependent induction of apoptotic cell death
same,ALP staining (odontoblast function),odontoblasts,significantly less staining
same,VEGF secretion,[6],large effects
same,cell death,[6],large effects
same,mitochondrial membrane potential (Δψm),Jurkat cells,decrease in mitochondrial membrane potential
same,Caspase 3 induction,Caspase 3 [7],increase in Caspase 3 induction
same,levels of full length caspase 3 (processing of caspase 3),Caspase 3 [8],decrease in the levels of full length caspase 3
same,GAPDH mRNA,GAPDH mRNA,significant inhibition of GAPDH mRNA
same,VEGF secretion,[9],significantly decreased secretion of VEGF
same,cells that underwent cell death,"mesenchymal stem cells; mesenchymal stem cells, 0.0164M HEMA",86.1%
same,cells that underwent cell death,"osteoblasts; osteoblasts, 0.0164M HEMA",49.7%
same,VEGF secretion,[10],significantly reduced VEGF secretion
same,VEGF,"[11]; HEp2 +0.00164M HEMA, −/+NAC, Patient PBMC +IL-2",7760
same,VEGF,"[11]; HEp2 +0.00164M HEMA, −/+NAC, Patient PBMC −IL-2",6550
same,VEGF,"[11]; HEp2 +0.0164M HEMA, −/+NAC 20 mM, about 18 hours, Patient PBMC −IL-2",1161
same,VEGF,"[11]; HEp2 +0.0164M HEMA, −/+NAC, Patient PBMC +IL-2",379
"CC(=O)N[C@@H](CS)C(=O)O [NAC, N-acetyl-cysteine]",VEGF,"[1]; HEp2 −HEMA (+NAC), Control PBMC +IL-2",5376
same,VEGF,"[1]; HEp2 −HEMA (+NAC), Control PBMC −IL-2",5260
same,VEGF,"[1]; HEp2 −HEMA (+NAC), No PBMC",4714
same,IL-6,"[2]; HEp2 −HEMA (+NAC), PBMC +IL-2",1835 pg/mL
same,IL-6,"[2]; HEp2 −HEMA (+NAC), PBMC −IL-2",880 pg/mL
same,Human dental pulp stromal cells (VEFG secretion),"[3]; NAC alone, no HEMA",1804.1 pg/mL
same,UCLA-2 (VEFG secretion),"[4]; NAC alone, no HEMA",2831.9 pg/mL
same,cells in the stage of late apoptosis (PI/Annexin V),[5]; [15],about 25%
same,apoptotic cell death (PI/Annexin V),HaCaT cells,considerably decreased the percentages of cells positive for PI/Annexin V staining
same,ALP staining (odontoblast function),odontoblasts,positive for ALP staining
same,VEGF secretion,[6],strongly if not totally ameliorated
same,cell death,[6],strongly if not totally ameliorated
same,mitochondrial membrane potential (Δψm),Jurkat cells,restored mitochondrial membrane potential
same,Caspase 3 induction,Caspase 3 [7],decreased the induction of caspase 3 expression
same,levels of full length caspase 3 (processing of caspase 3),Caspase 3 [8],this decrease is inhibited
same,GAPDH mRNA,GAPDH mRNA,prevented this inhibition
same,VEGF secretion,[9],prevented the HEMA-mediated decrease
same,prevention of HEMA-mediated cell death,"mesenchymal stem cells; NAC 20 mM, 18 hours",can prevent HEMA-mediated cell death
same,prevention of HEMA-mediated cell death,"osteoblasts; NAC 20 mM, 18 hours",can prevent HEMA-mediated cell death
same,VEGF secretion,[10],could be reversed
same,VEGF,"[11]; HEp2 −HEMA (+NAC 20 mM), Patient PBMC −IL-2",5648
same,VEGF,"[11]; HEp2 −HEMA (+NAC), Patient PBMC +IL-2",5805
